The subject of the assay is HEK293T viability, CellTiter-Glo ATP luminescence, 72 h. As to the kind of experiment: ATP-based viability loss in HEK293T cells – cell-based, CellTiter-Glo luminescence, cherry-pick, set 3, cytotoxicity control, dose response (AID 720588).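 Note: potency for luminescence loss meaning cytotoxic compounds.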 In general terms: Cellular ATP, detected with luciferase, serves as a proxy for viable cell number.

“And” between values parts separate entries of the source, which are not always exact repeats. Equal entries are not always repeated. Where only a bound is given, the exact number is not on record here.

Take `C=C1C(=O)OC2C1CCC(C)C1(O)C=CC(=O)C21C` (stereo not drawn): the AC35 is 9.94 µM. The result for `Oc1c(Cl)cc(Cl)c(Cl)c1Cc1c(O)c(Cl)cc(Cl)c1Cl` reads 11.4 µM. In the case of `C[C@@H]1CN([C@H](C)CO)C(=O)c2cc(N(C)C)ccc2O[C@H]1CN(C)Cc1ccc(C(=O)Nc2ccccc2N)cc1` it was 16.5 µM; in that of `Nc1nc(N)c2cc(Sc3ccc4ccccc4c3)ccc2n1`, 4.44 µM; in that of `O=C(NC1CCCC1)N1CCCCN2[C@@H](CO)[C@@H](c3ccc(/C=C/c4ccccc4)cc3)[C@@H]2C1`, 9.42 µM.

With `COc1cccc(O)c1CN1CCC(C(=O)Nc2ccc(-c3cccc(C)c3)cc2)CC1`, the AC35 is 11.8 µM. The result for `CC(C)(C)c1ccc(/C=N/Nc2ccc(C(=O)O)cc2)cc1` reads 16.5 µM; that for `NC(Cc1ccc(C(F)(F)F)cc1)c1csc(NC(=O)Nc2ccccc2Cc2ccccc2)n1` (stereo not drawn), 12.4 µM; that for `CC1OC(OC2CC(O)C3(CO)C4C(O)CC5(C)C(C6=CC(=O)OC6)CCC5(O)C4CCC3(O)C2)C(O)C(O)C1O` (stereo not drawn), 0.0877 µM.

As to `CC(=NNc1ccc2ccccc2n1)c1ccccn1`, the AC35 is 1.12 µM.

As for `C[C@@H]1O[C@@H](O[C@@H]2C=C3CC[C@@H]4C(CC[C@]5(C)[C@@H](c6ccc(=O)oc6)CC[C@]45O)[C@@]3(C)CC2)[C@H](O)[C@H](O)[C@H]1O` (stereo partly drawn), the AC35 is less than 0.011 µM. In the case of `C=CC[n+]1c(-c2ccc(C)cc2)csc1Nc1ccc(NC(C)=O)cc1` it was 12.5 µM; in that of `C[C@@H]1CN([C@H](C)CO)S(=O)(=O)c2ccc(C#CC(C)(C)O)cc2O[C@H]1CN(C)Cc1ccc(-c2ccccc2)cc1`, 7.28 µM; in that of `O=c1ccc2[n+]([O-])c3ccc(O)cc3oc-2c1`, 4.57 µM. For `COC(=O)C1=C(C)N(Cc2ccccc2C(F)(F)F)C(=NCc2ccc(OC)cc2)NC1c1ccc(C(F)(F)F)cc1` (stereo not drawn), the AC35 was 9.47 µM.

Turning to `O=C1/C(=C\c2ccccc2)CN(C(=O)CCN2CCCCC2)C/C1=C/c1ccccc1`, the AC35 is 5.13 µM. As for `O=c1cc(-c2ccccc2)oc2ccc3ccccc3c12`, the AC35 was 1.57 µM.

For `O=C1NC(=O)N(c2ccccc2)C(=O)/C1=C\C=C\c1ccccc1`, the AC35 is 19.1 µM.

For the molecule `O=C(C[C@H]1C[C@H]2c3cc(NS(=O)(=O)c4ccc(F)cc4)ccc3O[C@H]2[C@H](CO)O1)NCc1ccc(Oc2ccccc2)cc1`, the AC35 was 16 µM. The result for `O=C(Sc1cccc2cccnc12)c1ccccc1Br` reads 7.7 µM; that for `C(=NNc1ccc2ccccc2n1)c1ccccn1`, 1.62 µM. The result for `Cc1nc(N)nc(N)c1-c1ccc(Cl)c(Cl)c1` reads 1.72 µM; that for `C/C(=N\NC(=O)c1n[nH]c2c1CCC2)c1cccs1`, 10.8 µM.

Turning to `CC(C)N1C/C(=C/c2ccsc2)C(=O)/C(=C/c2ccsc2)C1`, the AC35 was 7.95 µM. Take `O=c1c2ccccc2nc(/C=C/c2cc(Br)ccc2O)n1CCCO`: the AC35 is 14.4 µM. In the case of `Nc1nc(=S)c2[nH]cnc2[nH]1` it was 5.79 µM; in that of `O=C(C[C@@H]1C[C@H]2c3cc(NS(=O)(=O)c4ccc(F)cc4)ccc3O[C@H]2[C@H](CO)O1)NCc1ccc(-c2ccccc2)cc1`, 18.7 µM. The result for `CCc1ccc(N2C=C(C(=O)OC)C(c3ccc(OC)cc3)C(C#N)=C2N)cc1` (stereo not drawn) reads 10.6 µM. In the case of `CN1c2ccc(-c3ccc(C#N)cc3)cc2[C@H]2[C@H](CCN2S(=O)(=O)c2cccc(F)c2)[C@H]1CO` it was 13.4 µM; in that of `Oc1[nH]c2ccc(Br)cc2c1N=NC(=S)N1CCOCC1`, 4.31 µM; in that of `C[C@H]1CN([C@@H](C)CO)C(=O)c2cc(NS(=O)(=O)c3ccc(Cl)cc3)ccc2O[C@H]1CN(C)Cc1ccc(Cl)c(Cl)c1`, 16.5 µM. On to `CN(Cc1cnc2nc(N)nc(N)c2n1)c1ccc(C(=O)N[C@@H](CCC(=O)O)C(=O)O)cc1`, for which the AC35 is 0.0442 µM and 0.0275 µM. In the case of `C[C@H]1CN([C@@H](C)CO)C(=O)c2cc(N(C)C)ccc2O[C@@H]1CN(C)Cc1ccc(C(=O)Nc2ccccc2N)cc1` it was 24.8 µM; in that of `CNC[C@H](CC1CCCCC1)NC[C@H](CO)NCCc1cccc(C(F)(F)F)c1`, 10.8 µM. The result for `S=c1[nH]nc(-c2cc(-c3ccccc3)n[nH]2)n1/N=C/C(Br)=C/c1ccccc1` reads 12.4 µM; that for `C[C@@H]1CN([C@@H](C)CO)C(=O)c2cc(NS(=O)(=O)c3ccc(Cl)cc3)ccc2O[C@@H]1CN(C)Cc1ccc(C(=O)Nc2ccccc2N)cc1`, 9.95 µM. The result for `CC1(C)N=C(N)N=C(N)N1c1ccc(OCCCOc2ccccc2)c(Cl)c1` reads 11.1 µM; that for `C/C(=N\Nc1cccc2cccnc12)c1ccccn1`, 11.8 µM; that for `COc1ccc(-c2cnc3c(NC=O)cc(-c4ccccc4OC)cn23)cc1OC`, 9.05 µM.

`C[C@@H]1CCCCO[C@H](CN(C)Cc2ccc(C(=O)Nc3ccccc3N)cc2)[C@@H](C)CN([C@H](C)CO)C(=O)c2cc(NS(=O)(=O)c3ccc(F)cc3)ccc2O1`: the AC35 was 13.3 µM.

Take `Nc1nc2cc3c(cc2cc1C(=O)NCCc1c[nH]c2ccccc12)OCO3`: the AC35 was 5.04 µM. The result for `C[C@H](CO)N1C[C@H](C)[C@H](CN(C)Cc2ccc(Oc3ccccc3)cc2)Oc2ccc(NC(=O)Cn3cnnn3)cc2CC1=O` reads 15.5 µM; that for `O=c1ccc2ccccc2c2ccccc12`, 14.1 µM.

In the case of `Cc1cc(C(=O)Nc2ccc3c(c2)C(=O)N(C)[C@@H]2CC[C@@H](CC(=O)NCc4ccc(-c5ccccc5)cc4)O[C@H]2CO3)no1`, the AC35 is 24.5 µM.

Take `CC(=O)Oc1ccc(-c2ccc(C(=O)Nc3cccc(S(=O)(=O)N4CCOCC4)c3)cc2)cc1`: the AC35 was 0.274 µM.

Take `C[C@@H]1O[C@@H](O[C@H]2C[C@@H](O)[C@]3(CO)[C@H]4[C@H](O)C[C@]5(C)[C@@H](C6COC(=O)C6)CC[C@]5(O)[C@@H]4CC[C@]3(O)C2)[C@H](O)[C@H](O)[C@H]1O` (stereo partly drawn): the AC35 is 2.22 µM.

As to `CN(C[C@H]1N[C@@H](CO)[C@@H]1c1ccc(C2=CCCC2)cc1)C(=O)c1cccc(F)c1`, the AC35 is 4.63 µM.

`C[C@@H]1O[C@@H](O[C@@H]2C=C3CCC4C(CC[C@]5(C)[C@@H](c6ccc(=O)oc6)CC[C@]45O)[C@@]3(C)CC2)[C@H](O)[C@H](O)[C@H]1O` (stereo partly drawn): the AC35 is 0.0201 µM. In the case of `COc1cccc(-c2cc(NC=O)c3ncc(-c4ccc(C(C)=O)cc4)n3c2)c1` it was 8.98 µM; in that of `C[C@@H]1CN([C@@H](C)CO)C(=O)c2cccc(N(C)C)c2O[C@@H]1CN(C)Cc1ccc(C(=O)Nc2ccccc2N)cc1`, 8.32 µM; in that of `CCOc1ccc(N=Nc2ccc(O)c3ncccc23)cc1`, 13.4 µM.

Regarding `C[C@]12CC[C@H](O)C[C@H]1CC[C@@H]1C2CC[C@]2(C)[C@@H](C3=CC(=O)OC3)[C@@H](O)C[C@]12O` (stereo partly drawn), the AC35 is 1.86 µM. In the case of `Cc1cc2sc3ccc(C#CC4(O)CCCCC4)cc3c(=O)c2cc1C` it was 18.4 µM. Consider `C=C(C(=O)c1ccccc1)C(C)C(=C)C(=O)c1ccccc1`, for which the AC35 was 5.24 µM. In the case of `Cc1cc(C)c2sc(NNC(=O)c3ccc(S(=O)(=O)N4CCc5ccccc5C4)cc3)nc2c1` it was 5.13 µM; in that of `NC1=CC(=O)C(=O)c2cccnc21`, 20.7 µM.

With `COc1ccc(Cn2cc3c(-c4ccc(F)cc4)nnc-3c3cc(OC)c(OC)cc32)cc1`, the AC35 was 10.2 µM. In the case of `C=C1C(=O)OC2C1CCC(C)C1C=CC(=O)C12C` (stereo not drawn), the AC35 was 8.71 µM. The result for `COc1ccccc1C(CCNCc1ccc(N(C)C)cc1)c1ccc(OC(C)C)cc1` (stereo not drawn) reads 10.7 µM. The result for `Cc1cccc(/C=N/Nc2ccc3ccccc3n2)c1` reads 11.2 µM; that for `CCCCCCCCn1c2c(c(=N)c3c1CCC3)CCCC2`, 3.51 µM. In the case of `Cc1ccc(C(C)C)c(OCc2ccc(C(=O)N/N=C/c3ccc(O)cc3O)cc2)c1` it was 4.02 µM; in that of `CCN1C/C(=C/c2ccc(N3CCOCC3)cc2)C(=O)/C(=C/c2ccc(N3CCOCC3)cc2)C1`, 9.96 µM; in that of `N#C[C@H]1[C@H](c2ccc(C#Cc3ccccc3F)cc2)[C@@H](CO)N1C(=O)C1CCCCC1`, 13.2 µM.

`O=C(c1nnsc1S(=O)c1ccc(Cl)cc1)N1CCOCC1` (stereo not drawn): the AC35 was 5.6 µM.

Regarding `CO[C@H]1CN(C)C(=O)c2ccc(NC(=O)c3ccc(-c4ccccc4)cc3)cc2OC[C@H](C)NC[C@H]1C`, the AC35 is 8.64 µM. The result for `CC1(C)N=C(N)N=C(N)N1c1ccc(CCCCc2ccccc2)cc1` reads 3.5 µM; that for `C/C(=C\c1ccccc1)C(=O)N1CCC=CC1=O`, 22.3 µM; that for `CC(=O)OC1CC(OC2C(O)CC(OC3C(O)CC(OC4CCC5(C)C(CCC6C5CCC5(C)C(C7=CC(=O)OC7)C(O)CC65O)C4)OC3C)OC2C)OC(C)C1OC1OC(CO)C(O)C(O)C1O` (stereo not drawn), 0.58 µM. In the case of `O=C1Nc2cc(C(=O)NCCN3CCCCCC3)ccc2S/C1=C\c1ccccc1` it was 11.7 µM. Turning to `Oc1cccc(-c2nnc(-c3cccc(O)c3)nn2)c1`, the AC35 is 7.1 µM. The result for `CC12CCC3C(CCC4(O)CC(O)CCC34C=NO)C1(O)CCC2C1=COC(=O)C1` (stereo not drawn) reads 0.25 µM. The result for `CCCCCCCCCCCCCCCCCCNc1ccn(C2OC(COP(=O)(O)OCC3OC(n4cc(F)c(=O)[nH]c4=O)CC3O)C(O)C2O)c(=O)n1` (stereo not drawn) reads 6.6 µM; that for `CC(C)=CCC/C(C)=C/CN1C(=O)N(c2ccc(F)cc2)[C@H]2C[C@@H](c3ccccc3)[C@@H](C)[C@@H](C(=O)N3CCOCC3)C[C@H]21`, 2.01 µM; that for `C[C@H](O)C#Cc1ccc2c(c1)O[C@@H](CN(C)Cc1ccc(-c3ccccc3)cc1)[C@H](C)CN([C@@H](C)CO)S2(=O)=O`, 14.7 µM and 11.2 µM.

Regarding `N/C(=C\C(=O)c1cc(Cl)ccc1O)C(Cl)(Cl)Cl`, the AC35 is 14.7 µM. For the molecule `COc1ccccc1CNC(=O)C[C@@H]1CC[C@H]2[C@@H](COC[C@H](O)CN2C(=O)Nc2ccc(C(F)(F)F)cc2)O1`, the AC35 was 13.5 µM. As to `CCCCc1c(-c2ccccc2OC)ncn1Cc1ccc(C(C)(C)C)cc1`, the AC35 was 6.42 µM.

For `Cc1ccccc1S(=O)(=O)N1CC[C@@H]2[C@@H](CO)Nc3ccc(-c4ccc(C#N)cc4)cc3[C@@H]21`, the AC35 was 14.8 µM.

As for `OC[C@H]1[C@@H](c2ccc(C#CC3CCCC3)cc2)[C@@H]2CN(CCC(F)(F)F)CCCCN12`, the AC35 is 10.4 µM. Take `O=C1NC(=S)NC(=O)C1=Cc1cccn1-c1ccc(O)cc1`: the AC35 is 19.5 µM. In the case of `O=C1NC(=O)N(Cc2ccccc2)C(=O)/C1=C\C=C\c1ccco1` it was 12.9 µM. Turning to `Cc1ccc2nc(-c3ccccc3)nn2c1`, the AC35 was 11.7 µM.
